In series [1] the test system is Mycobacteroides abscessus. Put plainly: Antimycobacterial activity against Mycobacterium abscessus […] assessed as inhibition of bacterial growth measured after 5 days by visual analysis. It is filed as functional. The settings on record: 120 h, time 5 day.
Series [2] can be described thus: Permeability of the compound by PAMPA method. It is filed as ADME. In general terms: In PAMPA a lipid-coated filter parts donor from acceptor wells.
Series [3] deals with Mycobacterium tuberculosis. Put plainly: Antimycobacterial activity against Mycobacterium tuberculosis H37Rv mc2 6206 assessed as inhibition of bacterial growth measured after 7 days by visual analysis. It is filed as functional. The settings on record: H37Rv mc2 6206, 168 h, time 7 day.
Series [4] is described as follows: Metabolic stability in human liver S9 fraction assessed as parent compound remaining at 5 ug/ml after 90 mins in presence of NADPH by LC/MS analysis. It is filed as ADME, subcellular. The settings on record: s9, 1.5 h, dose 5 µg/ml.
In the next series the test system is THP-1. Put plainly: Cytotoxicity against human THP-1 cells assessed as inhibition of cell growth measured after 72 hrs by MTT assay. It is filed as toxicity, cell-based. On the technique in general: Formazan colour is commonly taken as a measure of viable cells.
Series [5] can be described thus: Selectivity index, ratio of IC50 for Cytotoxicity against human WI26VA4 cells to MIC for antimycobacterial activity against Mycobacterium tuberculosis H37Rv mc2 6206. It is filed as toxicity, cell-based. The settings on record: read-out: Selectivity Index.
Series [6] can be described thus: Plasma protein binding in human at 10 ug/ml incubated for 4 hrs under shaking condition by LC/MS/MS analysis. It is filed as ADME, cell-free. The settings on record: at 10 µg/mL, read-out: PPB (converted).
Series [7] in a line: Kinetic solubility of compound at pH 7.4 incubated for 6 hrs by LC-MS/MS analysis. It is filed as physicochemical. The settings on record: buffer, read-out: Kinetic_solubility.
Series [8] is described as follows: Selectivity index, ratio of IC50 for Cytotoxicity against human WI26VA4 cells to MIC for antimycobacterial activity against Mycobacterium abscessus […]. It is filed as toxicity, cell-based. Conditions: read-out: Selectivity Index.
For a further series, the system named is Mycobacterium kansasii. Put plainly: Antimycobacterial activity against Mycobacterium kansasii ATCC 1279 assessed as inhibition of bacterial growth by visual analysis. It is filed as functional.
Series [9] has as its system Mycobacteroides abscessus. Put plainly: Antimycobacterial activity against Mycobacterium abscessus ATCC 19977 harbouring mmpL3 A309P mutant gene assessed as inhibition of bacterial growth by visual analysis. It is filed as functional.
The subject of series [10] is Mycobacteroides abscessus. The experiment in a line: Antimycobacterial activity against Mycobacterium abscessus […] assessed as decrease in mycolic acid transfer onto cell wall arabinogalactan incubated for 3 hrs in presence of [1,2-14C]-acetate by TLC analysis. It is filed as functional, organism-based.
For series [11], the system named is Mycobacterium intracellulare subsp. chimaera. Put plainly: Antimycobacterial activity against Mycobacterium intracellulare subsp. chimaera 1501948 assessed as inhibition of bacterial growth by visual analysis. It is filed as functional.
Series [12] in a line: Binding affinity to Mycobacterium tuberculosis MmpL3 assessed as dissociation constant by SPR analysis. For orientation: Surface plasmon resonance follows binding to a sensor surface in real time, without labels.
Series [13] concerns Mycobacterium intracellulare. Put plainly: Antimycobacterial activity against Mycobacterium intracellulare 1956 assessed as inhibition of bacterial growth by visual analysis. It is filed as functional.
The nature of series [14]: Antimycobacterial activity against Mycobacterium avium subsp. avium 2585R assessed as inhibition of bacterial growth by visual analysis. It is filed as functional.
Series [15] relates to Mycobacteroides abscessus. The experiment in a line: Antimycobacterial activity against Mycobacterium abscessus ATCC 19977 harbouring wild type mmpL3 gene assessed as inhibition of bacterial growth by visual analysis. It is filed as functional.
Series [16] relates to Mycobacteroides abscessus. The experiment in a line: Antimycobacterial activity against Mycobacterium abscessus ATCC 19977 harbouring mmpL3 L551S mutant gene assessed as inhibition of bacterial growth by visual analysis. It is filed as functional.
Series [17] concerns Mycobacteroides abscessus. The experiment in a line: Antimycobacterial activity against Mycobacterium Mycobacterium abscessus ATCC 19977 harbouring mmpL3 I306S mutant gene assessed as inhibition of bacterial growth by visual analysis. It is filed as functional.
Series [18] is described as follows: Cytotoxicity against human WI26VA4 cells assessed as inhibition of cell growth measured after 72 hrs by MTT assay. It is filed as toxicity, cell-based.
Series [19] concerns Mycobacteroides abscessus. The experiment in a line: Antimycobacterial activity against Mycobacterium abscessus […] assessed as inhibition of mycolic acid biosynthesis at 1 to 10 times of MIC incubated for 3 hrs in presence of [1,2-14C]-acetate by TLC analysis. It is filed as functional, organism-based.
The subject of series [20] is Mycobacteroides abscessus. Put plainly: Antimycobacterial activity against Mycobacterium abscessus […] assessed as decrease in mycolic acid transfer onto cell wall trehalose dimycolate incubated for 3 hrs in presence of [1,2-14C]-acetate by TLC analysis. It is filed as functional, organism-based.
Series [21] in a line: Binding affinity to Mycobacterium tuberculosis MmpL3 assessed as equilibrium constant by SPR analysis.
Series [22] is described as follows: Cytotoxicity against mouse HEI-OC1 cells assessed as viable cells upto 100 uM measured after 72 hrs by MTT assay. It is filed as toxicity, cell-based. Conditions: hei-oc1, 72 h.
Series [23] in a line: Metabolic stability in mouse liver S9 fraction assessed as parent compound remaining at 5 ug/ml after 90 mins in presence of NADPH by LC/MS analysis. It is filed as ADME, subcellular. The settings on record: s9, 1.5 h, dose 5 µg/ml.
For another series, the system named is Mycobacteroides chelonae. Put plainly: Antimycobacterial activity against Mycobacteroides chelonae ATCC 35752 assessed as inhibition of bacterial growth by visual analysis. It is filed as functional.
In series [24] the test system is Mycobacterium tuberculosis. Put plainly: Displacement of North 114 from Mycobacterium tuberculosis wild type MmpL3 expressed in Mycobacterium smegmatis upto 8 uM incubated for 15 mins by flow cytometry based competition binding assay.
Series [25] concerns Mycolicibacterium fortuitum. Put plainly: Antimycobacterial activity against Mycobacterium fortuitum ATCC 6841 assessed as inhibition of bacterial growth by visual analysis. It is filed as functional.
The nature of series [26]: Cytotoxicity against mouse HEI-OC1 cells assessed as inhibition of cell growth measured after 72 hrs by MTT assay. It is filed as toxicity, cell-based.

≈ marks a conversion by molar mass, not a printed value. Calls of active or inactive are those of the source. The calls are words filed in the database; no cut-off is given here. A value given as a limit tells only on which side of the number the result lay.

For the molecule `Cc1cc(C)c2cc(C(=O)NC3CCCCCCC3)[nH]c2c1`, the values for the minimum inhibitory concentration (MIC) in series [1] and in series [3] were 0.063 µg/mL (≈ 0.211 µM) and 0.02 µg/mL (≈ 0.067 µM), respectively. For the same molecule, in series [2], the permeability is given as 0.18 10^-6 cm/s. For the same molecule, in series [4], the t1/2 was 0.5 h. Besides, the half-inhibitory concentration (IC50) in the series on THP-1 is greater than 14.9 µg/mL. Further, the selectivity ratio in series [5] was greater than 764; in series [8], greater than 237. Further, in series [6], the fraction unbound at 4 h, 10 ug/ml is 0.018. The solubility kinetic at 6 h in [7] amounted to 1.6 µg/mL (≈ 5.36 µM).
As to `O=C(CNc1cccc(OC(F)(F)F)c1)NC12CC3CC(CC(C3)C1)C2`, the minimal inhibitory concentration (MIC) in the series on Mycobacterium kansasii was 8 µg/mL (≈ 21.7 µM); in series [9], greater than 64 µg/mL; in series [3], 0.25 µg/mL (≈ 0.679 µM); in [11], 16 µg/mL (≈ 43.4 µM); in series [13], 8 µg/mL (≈ 21.7 µM); in series [14] it was 8 µg/mL (≈ 21.7 µM). In addition, the MIC in [15] amounted to 0.5 µg/mL (≈ 1.36 µM); in series [16], 0.5 µg/mL (≈ 1.36 µM); in series [17] it was 1 µg/mL (≈ 2.71 µM); with Mycobacteroides chelonae, 4 µg/mL (≈ 10.9 µM); in series [25], 2 µg/mL (≈ 5.43 µM). Moreover, the permeability in [2] is on record as 3.61 10^-6 cm/s. The outcome in [10], in series [20] and in series [24] was Active. Moreover, the t1/2 in [4] came out at 0.7 h; in [23], 0.4 h. In addition, the values for the Kd in series [12] and in [21] were 1.23 s⁻¹ and 780 µM, respectively. Further, the IC50 in series [18] was greater than 20 µg/mL. Also, the result in series [19] was inactive. In addition, the selectivity ratio in series [5] was greater than 80; in series [8], greater than 40. For the same molecule, in series [22], the Activity was determined as 70.8%. In addition, in series [6], the fraction unbound at 4 h, 10 ug/ml was 0.051. In addition, the solubility kinetic at 6 h in series [7] is 20.4 µg/mL (≈ 55.4 µM).
Consider `C[C@@H]1[C@H]2C[C@@H](C[C@H]1NC(=O)CNc1cccc(Cl)c1)C2(C)C`, for which the MIC in the series with Mycobacterium kansasii was 8 µg/mL (≈ 24.9 µM); in [9] it was greater than 64 µg/mL; in series [3], 0.25 µg/mL (≈ 0.779 µM); in series [11], 16 µg/mL (≈ 49.9 µM); in series [13], 8 µg/mL (≈ 24.9 µM); in series [14], 8 µg/mL (≈ 24.9 µM). The MIC is 0.5 µg/mL (≈ 1.56 µM) in series [15]; 0.5 µg/mL (≈ 1.56 µM) in series [16]; 1 µg/mL (≈ 3.12 µM) in [17]; 4 µg/mL (≈ 12.5 µM) in the series with Mycobacteroides chelonae; 2 µg/mL (≈ 6.23 µM) in series [25]. In addition, the permeability in series [2] is on record as 1.33 10^-6 cm/s. Further, the result in series [10], in series [20] and in series [24] was Active. Further, the t1/2 in [4] stood at 5.3 h; in series [23], 4.6 h. Moreover, the results for the Kd in series [12] and in series [21] were 1.22 s⁻¹ and 800 µM, respectively. In addition, in series [18], the IC50 was greater than 20 µg/mL. Moreover, in series [19], the result was inactive. Moreover, the selectivity ratio in [5] was greater than 80; in series [8], greater than 40. Further, the fraction unbound at 4 h, 10 ug/ml in [6] was 0.059. For the same molecule, the solubility kinetic at 6 h in series [7] is 16.3 µg/mL (≈ 50.8 µM). The IC50 at 72 h in [26] is 14.1 µM.
With `CC[C@H]1OC(=O)[C@H](C)[C@@H](O[C@H]2C[C@@](C)(OC)[C@@H](O)[C@H](C)O2)[C@H](C)[C@@H](O[C@@H]2O[C@H](C)C[C@H](N(C)C)[C@H]2O)[C@](C)(OC)C[C@@H](C)C(=O)[C@H](C)[C@@H](O)[C@]1(C)O` [CLARITHROMYCIN], the MIC in series [9] stood at 4 µg/mL (≈ 5.35 µM); in [16], 8 µg/mL (≈ 10.7 µM); in series [17], 4 µg/mL (≈ 5.35 µM).
Regarding `C[C@@H]1[C@H]2C[C@@H](C[C@H]1NC(=O)CNc1ccccc1Cl)C2(C)C`, the MIC in the series with Mycobacterium kansasii was 16 µg/mL (≈ 49.9 µM); in series [1], 1 µg/mL (≈ 3.12 µM); in series [3], 0.25 µg/mL (≈ 0.779 µM); in [11], greater than 64 µg/mL; in series [13] it was 16 µg/mL (≈ 49.9 µM); in [14], 16 µg/mL (≈ 49.9 µM). The MIC in the series with Mycobacteroides chelonae came to 4 µg/mL (≈ 12.5 µM); in [25], 2 µg/mL (≈ 6.23 µM). Also, the permeability in series [2] is given as 0.38 10^-6 cm/s. Moreover, the t1/2 in series [4] was found to be 5.1 h; in series [23] it was 8.6 h. Further, the IC50 in series [18] is greater than 20 µg/mL. The selectivity ratio is greater than 80 in series [5] and greater than 20 in series [8]. Further, the fraction unbound at 4 h, 10 ug/ml in series [6] was 0.045. Besides, the solubility kinetic at 6 h in [7] is 14.3 µg/mL (≈ 44.6 µM).

As usually defined, the MIC is the lowest concentration that inhibits growth of the organism. Usually IC50 stands for the concentration needed to halve the response being measured.

Source of the values: ChEMBL document CHEMBL5316284, “Structural Determinants of Indole-2-carboxamides: Identification of Lead Acetamides with Pan Antimycobacterial Activity” (J Med Chem, 2023).
